Data: patent US8410161B2, “Thioxanthone ring system derivatives” (National Defense Medical Center, priority 2010, dated 2013)

Legend:
HOP-92 = assay: NCI in vitro DTP human cell line screen, HOP-92; type: cell-based; conditions: Non-Small Cell Lung Cancer, 1.00E−5 Molar
Procedure: (§1) Then, a cell toxicity assay of the cancer lines made by National Cancer Institute will be discussed as follows. The cell toxicity assay is performed by choosing ten compounds (existing certification numbers) from the 59 compounds disclosed in the present invention first.

LOX IMVI = assay: NCI in vitro DTP human cell line screen, LOX IMVI; type: cell-based; conditions: Melanoma, 1.00E−5 Molar
Procedure: as §1

MDA-MB-435 = assay: NCI in vitro DTP human cell line screen, MDA-MB-435; type: cell-based; conditions: Melanoma, 1.00E−5 Molar
Procedure: as §1

CCRF-CEM = assay: NCI in vitro DTP human cell line screen, CCRF-CEM; type: cell-based; conditions: Leukemia, 1.00E−5 Molar
Procedure: as §1

HL-60(TB) = assay: NCI in vitro DTP human cell line screen, HL-60(TB); type: cell-based; conditions: Leukemia, 1.00E−5 Molar
Procedure: as §1

MDA-MB-231/ATCC = assay: NCI in vitro DTP human cell line screen, MDA-MB-231/ATCC; type: cell-based; conditions: Breast Cancer, 1.00E−5 Molar
Procedure: as §1

SN12C = assay: NCI in vitro DTP human cell line screen, SN12C; type: cell-based; conditions: Renal Cancer, 1.00E−5 Molar
Procedure: as §1

UACC-62 = assay: NCI in vitro DTP human cell line screen, UACC-62; type: cell-based; conditions: Melanoma, 1.00E−5 Molar
Procedure: as §1

A control cell lines = assay: MTT assay, A control cell lines (lung cancer cell); type: cell-based
Text: Please refer to Table 1 and FIGS. 4A-4C. According to a MTT assay (Table 1), various cell viabilities of the A control cell lines can be obtained and illustrated in FIG. 4A while the compounds No. 2˜30 are used to treat A control cell lines, wherein A control cell lines are lung cancer cell.

60 cancer lines = assay: NCI cell toxicity assay of 60 cancer lines, whole panel summary; type: cell-based, human; conditions: 1.00E−5 Molar
Procedure: as §1

EKVX = assay: NCI in vitro DTP human cell line screen, EKVX; type: cell-based; conditions: Non-Small Cell Lung Cancer, 1.00E−5 Molar
Procedure: as §1

ACHN = assay: NCI in vitro DTP human cell line screen, ACHN; type: cell-based; conditions: Renal Cancer, 1.00E−5 Molar
Procedure: as §1

OVCAR-5 = assay: NCI in vitro DTP human cell line screen, OVCAR-5; type: cell-based; conditions: Ovarian Cancer, 1.00E−5 Molar
Procedure: as §1

COLO 205 = assay: NCI in vitro DTP human cell line screen, COLO 205; type: cell-based; conditions: Colon Cancer, 1.00E−5 Molar
Procedure: as §1

NCI-H226 = assay: NCI in vitro DTP human cell line screen, NCI-H226; type: cell-based; conditions: Non-Small Cell Lung Cancer, 1.00E−5 Molar
Procedure: as §1

IGROV1 = assay: NCI in vitro DTP human cell line screen, IGROV1; type: cell-based; conditions: Ovarian Cancer, 1.00E−5 Molar
Procedure: as §1

NCI-H23 = assay: NCI in vitro DTP human cell line screen, NCI-H23; type: cell-based; conditions: Non-Small Cell Lung Cancer, 1.00E−5 Molar
Procedure: as §1

PC-3 = assay: NCI in vitro DTP human cell line screen, PC-3; type: cell-based; conditions: Prostate Cancer, 1.00E−5 Molar
Procedure: as §1

U251 = assay: NCI in vitro DTP human cell line screen, U251; type: cell-based; conditions: CNS Cancer, 1.00E−5 Molar
Procedure: as §1

MDA-MB-468 = assay: NCI in vitro DTP human cell line screen, MDA-MB-468; type: cell-based; conditions: Breast Cancer, 1.00E−5 Molar
Procedure: as §1

HCC-2998 = assay: NCI in vitro DTP human cell line screen, HCC-2998; type: cell-based; conditions: Colon Cancer, 1.00E−5 Molar
Procedure: as §1

SK-MEL-28 = assay: NCI in vitro DTP human cell line screen, SK-MEL-28; type: cell-based; conditions: Melanoma, 1.00E−5 Molar
Procedure: as §1

HCT-116 = assay: NCI in vitro DTP human cell line screen, HCT-116; type: cell-based; conditions: Colon Cancer, 1.00E−5 Molar
Procedure: as §1

NCI-H460 = assay: NCI in vitro DTP human cell line screen, NCI-H460; type: cell-based; conditions: Non-Small Cell Lung Cancer, 1.00E−5 Molar
Procedure: as §1

SNB-75 = assay: NCI in vitro DTP human cell line screen, SNB-75; type: cell-based; conditions: CNS Cancer, 1.00E−5 Molar
Procedure: as §1

DU145 = assay: NCI in vitro DTP human cell line screen, DU145; type: cell-based; conditions: Prostate Cancer, 1.00E−5 Molar
Procedure: as §1

CAKI-1 = assay: NCI in vitro DTP human cell line screen, CAKI-1; type: cell-based; conditions: Renal Cancer, 1.00E−5 Molar
Procedure: as §1

NCI/ADR-RES = assay: NCI in vitro DTP human cell line screen, NCI/ADR-RES; type: cell-based; conditions: Ovarian Cancer, 1.00E−5 Molar
Procedure: as §1

K562 = assay: NCI in vitro DTP human cell line screen, K562; type: cell-based; conditions: Leukemia, 1.00E−5 Molar
Procedure: as §1

MCF7 = assay: NCI in vitro DTP human cell line screen, MCF7; type: cell-based; conditions: Breast Cancer, 1.00E−5 Molar
Procedure: as §1

SMILES: O=c1c2ccccc2sc2c(Cl)c(Sc3ccc(Cl)cc3)ccc12 [No. 29, 4-Chloro-3-(4-chlorophenylthio)-9H-thioxanthen-9-one]
- Growth Percent (HOP-92): 49.52%
- Growth Percent (LOX IMVI): 63.24%
- Growth Percent (MDA-MB-435): 85.11%
- Growth Percent (CCRF-CEM): 67.42%
- Growth Percent (HL-60(TB)): 105.61%
- Growth Percent (MDA-MB-231/ATCC): 77.55%
- Growth Percent (SN12C): 70.19%
- Growth Percent (UACC-62): 82.23%
- cell viabilities of A control cell lines (MTT assay) (A control cell lines): 70.1 ± 2.68%
- Growth Percent, Mean (60 cancer lines; mean over all cell lines): 78.44%
- cancer types with the better inhibition effect (in words) (60 cancer lines; summary of Table 3): better inhibition effect on Leukemia, non-small cell lung cancer, colorectal cancer, central nervous system cancer, ovarian cancer and kidney cancer
- Growth Percent (EKVX): 73.14%
- Growth Percent (ACHN): 39.55%
- Growth Percent (OVCAR-5): 107.36%
- Growth Percent (COLO 205): 87.02%
- Growth Percent (NCI-H226): 81.05%
- Growth Percent (IGROV1): 53.39%
- Growth Percent (NCI-H23): 83.03%
- Growth Percent (PC-3): 77.10%
- Growth Percent (U251): 47.77%
- Growth Percent (MDA-MB-468): 87.73%
- Growth Percent (HCC-2998): 98.92%
- Growth Percent (SK-MEL-28): 114.93%
- Growth Percent (HCT-116): 54.33%
- Growth Percent (NCI-H460): 40.25%
- Growth Percent (SNB-75): 76.16%
- Growth Percent (DU145): 108.68%
- Growth Percent (CAKI-1): 48.21%
- Growth Percent (NCI/ADR-RES): 81.27%
- Growth Percent (K562): 96.64%
- Growth Percent (MCF7): 83.90%
